These results are taken from US10328053B2 (Gilead Sciences, Inc., priority 2016, dated 2019).

SMILES strings stand for the structures.

In series [1] the test system is pooled cryopreserved hepatocytes. The series can be described thus: Hepatic Stability Assay (in vitro half-life method). To be noted: 37° C., 1×10^6 cells/mL, 0-6 hours, LC-MS/MS, 39.5 hours is the maximum detectable half life. The class given is in vitro ADME. The arrangement: dose or concentration left out as unconfirmed. The gist of the method:
(§1)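 Pooled cryopreserved hepatocytes (1×10^6 cells/mL) incubated with compound at […] test concentration, 37° C.; samples at 0, 1, 3 and 6 h quantified by LC-MS/MS. Half-life from rate of compound disappearance, scaled to predicted hepatic clearance via well-stirred model.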

Assay in series [2]: as above
Conditions: pooled cryopreserved hepatocytes, 37° C., 1×10^6 cells/mL, 0-6 hours, LC-MS/MS, 39.5 hours is the maximum detectable half life, read-out: t½ (converted). The class given is in vitro ADME. The arrangement: dose or concentration left out as unconfirmed. The gist of the method: as §1

Series [3] has as its system HBV AD38 viral particles in HepG2 cell line overexpressing NTCP. The series can be described thus: HBV DNA Quantification Assay. The series is classed as cell-based. Conditions: Hepatitis B virus, HepG2, 120 h, HBV-infected HepG2-NTCP cells, 5 days incubation, HBV DNA in culture supernatant (QuantiGene 2.0); geometric mean of a minimum of four determinations. The gist of the method: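 Antiviral EC50 derived by four-parameter dose-response fit and given as geometric mean of at least four runs. Read-out was branched-DNA (QuantiGene 2.0) luminescence for HBV DNA in culture supernatant after 5 days of compound exposure. Cells: HepG2-NTCP infected 4 days beforehand with AD38 particles, 4000 genome equivalents per cell.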

The t½ is the time in which the quantity being followed falls by half. Take `Cc1c(C(=O)C(=O)N[C@H](C)C(F)(F)F)c2n(c1C(=O)Nc1ccc(F)c(Cl)c1)C(C)CC2` (single isomer, unassigned) [Example 25]: the t½ in series [1] was 9.1 h.
In turn, `CNC(=O)C1(NC(=O)C(=O)c2c(C)c(C(=O)Nc3cccc(C(F)F)c3)n3c2CCC3)CC(F)(F)C1` [Example 115, 7-(2-((3,3-difluoro-1-(methylcarbamoyl)cyclobutyl)amino)-2-oxoacetyl)-N-(3-(difluoromethyl)phenyl)-6-methyl-2,3-dihydro-1H-pyrrolizine-5-carboxamide] registered a t½ in series [1] of 39.5 h.
Usually EC50 stands for the concentration needed to bring the measured effect to its halfway point. For the molecule `Cc1c(C(=O)C(=O)NC2(c3c[nH]nn3)CC(F)(F)C2)c2n(c1C(=O)Nc1ccc(F)c(F)c1)[C@@H]1C[C@@H]1C2` [Example 42, (1aR,6aR)-5-(2-((3,3-difluoro-1-(1H-1,2,3-triazol-4-yl)cyclobutyl)amino)-2-oxoacetyl)-N-(3,4-difluorophenyl)-4-methyl-1,1a,6,6a-tetrahydrocyclopropa[b]pyrrolizine-3-carboxamide], the half-life in series [2] was 3.5 h. Further, in series [3], the EC50 is 2.1 nM.
For the molecule `Cc1c(C(=O)C(=O)NC2(c3c[nH]nn3)CC(F)(F)C2)c2n(c1C(=O)Nc1cc(F)c(F)c(F)c1)CCC2` [Example 53, 7-(2-((3,3-difluoro-1-(1H-1,2,3-triazol-4-yl)cyclobutyl)amino)-2-oxoacetyl)-6-methyl-N-(3,4,5-trifluorophenyl)-2,3-dihydro-1H-pyrrolizine-5-carboxamide], the half-life in series [2] is 10.8 h. Further, the EC50 in series [3] turned out to be 3.2 nM.
Turning to `CNC(=O)C1(NC(=O)C(=O)c2c(C)c(C(=O)Nc3cc(F)c(F)c(F)c3)n3c2CCC3)CC(F)(F)C1` [Example 36, 7-(2-((3,3-difluoro-1-(methylcarbamoyl)cyclobutyl)amino)-2-oxoacetyl)-6-methyl-N-(3,4,5-trifluorophenyl)-2,3-dihydro-1H-pyrrolizine-5-carboxamide], in series [2], the half-life was 26.5 h. The same molecule had a 50% effective concentration (EC50) in series [3] of 24 nM.
Consider `CNC(=O)[C@@](C)(NC(=O)C(=O)c1c(C)c(C(=O)Nc2ccc(F)c(F)c2)n2c1CCC2)C(F)(F)F` [Example 137, (R)—N-(3,4-difluorophenyl)-6-methyl-7-(2-oxo-2-((1,1,1-trifluoro-2-methyl-3-(methylamino)-3-oxopropan-2-yl)amino)acetyl)-2,3-dihydro-1H-pyrrolizine-5-carboxamide], for which the half-life in series [2] is 7.4 h. In series [3], the midpoint of the response, the EC50, lay at 158 nM.
For the molecule `Cc1c(C(=O)C(=O)NC2(c3c[nH]nn3)CC2)c2n(c1C(=O)Nc1cccc(Cl)c1)CCC2` [Example 74, 7-(2-((1-(1H-1,2,3-triazol-4-yl)cyclopropyl)amino)-2-oxoacetyl)-N-(3-chlorophenyl)-6-methyl-2,3-dihydro-1H-pyrrolizine-5-carboxamide], the half-life in series [2] was 22.2 h. For the same molecule, in series [3], the EC50 stood at 42 nM.
On to `Cc1c(C(=O)C(=O)NC2(c3nncs3)CC2)c2n(c1C(=O)Nc1cc(F)c(F)c(F)c1)[C@@H]1C[C@@H]1C2` [Example 57, (1aR,6aR)-5-(2-((1-(1,3,4-thiadiazol-2-yl)cyclopropyl)amino)-2-oxoacetyl)-4-methyl-N-(3,4,5-trifluorophenyl)-1,1a,6,6a-tetrahydrocyclopropa[b]pyrrolizine-3-carboxamide], for which, in series [2], the half-life is 8 h. In series [3], this molecule gave an EC50 of 9.9 nM.
The corresponding values for `CNC(=O)C1(NC(=O)C(=O)c2c(C)c(C(=O)Nc3ccc(F)c(Cl)c3)n3c2C[C@@H](O)C3)CC(F)(F)C1` [Example 16, (R)—N-(3-chloro-4-fluorophenyl)-7-(2-((3,3-difluoro-1-(methylcarbamoyl)cyclobutyl)amino)-2-oxoacetyl)-2-hydroxy-6-methyl-2,3-dihydro-1H-pyrrolizine-5-carboxamide] are 11.8 h and 456 nM.
For the molecule `Cc1c(C(=O)C(=O)NC2(c3c[nH]nn3)CC(F)(F)C2)c2n(c1C(=O)Nc1ccc(F)cc1)CCC2` [Example 32, 7-(2-((3,3-difluoro-1-(1H-1,2,3-triazol-4-yl)cyclobutyl)amino)-2-oxoacetyl)-N-(4-fluorophenyl)-6-methyl-2,3-dihydro-1H-pyrrolizine-5-carboxamide], the half-life in series [2] was 8.8 h. In series [3], this molecule returned a 50% effective concentration (EC50) of 8.5 nM.
The corresponding values for `CNC(=O)C1(NC(=O)C(=O)c2c(C)c(C(=O)Nc3ccnc(C(F)F)c3F)n3c2CCC3)CC(F)(F)C1` [Example 147, 7-(2-((3,3-difluoro-1-(methylcarbamoyl)cyclobutyl)amino)-2-oxoacetyl)-N-(2-(difluoromethyl)-3-fluoropyridin-4-yl)-6-methyl-2,3-dihydro-1H-pyrrolizine-5-carboxamide] are 24.8 h and 103 nM.
In the same order, the values of `CNC(=O)C(C)(C)NC(=O)C(=O)c1c(C)c(C(=O)Nc2cc(F)c(F)c(F)c2)n2c1CCC2` [Example 83, 6-methyl-7-(2-((2-methyl-1-(methylamino)-1-oxopropan-2-yl)amino)-2-oxoacetyl)-N-(3,4,5-trifluorophenyl)-2,3-dihydro-1H-pyrrolizine-5-carboxamide] are 19.2 h and 199 nM.
Take `Cc1c(C(=O)C(=O)NC2(c3cnn[nH]3)CC2)c2n(c1C(=O)Nc1ccc(F)cc1F)CCC2` [Example 93, 7-(2-((1-(1H-1,2,3-triazol-5-yl)cyclopropyl)amino)-2-oxoacetyl)-N-(2,4-difluorophenyl)-6-methyl-2,3-dihydro-1H-pyrrolizine-5-carboxamide]: in series [2], the half-life was 29.9 h. Further, the 50% effective concentration (EC50) in series [3] came to 254 nM.
The corresponding values for `Cc1c(C(=O)C(=O)NC2(c3c[nH]nn3)CC(F)(F)C2)c2n(c1C(=O)Nc1ccc(F)c(Cl)c1)[C@@H]1C[C@@H]1C2` [Example 39, (1aR,6aR)—N-(3-chloro-4-fluorophenyl)-5-(2-((3,3-difluoro-1-(1H-1,2,3-triazol-4-yl)cyclobutyl)amino)-2-oxoacetyl)-4-methyl-1,1a,6,6a-tetrahydrocyclopropa[b]pyrrolizine-3-carboxamide] are 4.2 h and 2.1 nM.
`Cc1c(C(=O)C(=O)NC2(c3c[nH]nn3)COC2)c2n(c1C(=O)Nc1ccc(F)c(F)c1)[C@@H]1C[C@@H]1C2` [Example 87, (1aR,6aR)-5-(2-((3-(1H-1,2,3-triazol-4-yl)oxetan-3-yl)amino)-2-oxoacetyl)-N-(3,4-difluorophenyl)-4-methyl-1,1a,6,6a-tetrahydrocyclopropa[b]pyrrolizine-3-carboxamide]: the half-life in series [2] was 6.3 h. This molecule came in with an EC50 in series [3] of 12.5 nM.
In the same order, the values of `Cc1c(C(=O)C(=O)NC2(c3c[nH]nn3)CC2)c2n(c1C(=O)Nc1cc(F)cc(C#N)c1)CCC2` [Example 126, 7-(2-((1-(1H-1,2,3-triazol-4-yl)cyclopropyl)amino)-2-oxoacetyl)-N-(3-cyano-5-fluorophenyl)-6-methyl-2,3-dihydro-1H-pyrrolizine-5-carboxamide] are 10.7 h and 166 nM.
Regarding `Cc1c(C(=O)C(=O)NC2(c3c[nH]nn3)CC2)c2n(c1C(=O)Nc1ccc(F)c(F)c1F)CCC2` [Example 111, 7-(2-((1-(1H-1,2,3-triazol-4-yl)cyclopropyl)amino)-2-oxoacetyl)-6-methyl-N-(2,3,4-trifluorophenyl)-2,3-dihydro-1H-pyrrolizine-5-carboxamide], the half-life in series [2] was 10.1 h. Further, it took 154 nM to reach a half-maximal effect in series [3] (EC50).
In the same order, the values of `Cc1c(C(=O)C(=O)NC2(c3c[nH]nn3)CC(F)(F)C2)c2n(c1C(=O)Nc1ccnc(C(F)F)c1F)[C@@H]1C[C@@H]1C2` [Example 80, (1aR,6aR)-5-(2-((3,3-difluoro-1-(1H-1,2,3-triazol-4-yl)cyclobutyl)amino)-2-oxoacetyl)-N-(2-(difluoromethyl)-3-fluoropyridin-4-yl)-4-methyl-1,1a,6,6a-tetrahydrocyclopropa[b]pyrrolizine-3-carboxamide] are 6.3 h and 8.7 nM.
In the same order, the values of `Cc1c(C(=O)C(=O)NC2(c3c[nH]nn3)CC(F)(F)C2)c2n(c1C(=O)Nc1cc(F)c(F)c(F)c1)[C@@H]1C[C@@H]1C2` [Example 40, (1aR,6aR)-5-(2-((3,3-difluoro-1-(1H-1,2,3-triazol-4-yl)cyclobutyl)amino)-2-oxoacetyl)-4-methyl-N-(3,4,5-trifluorophenyl)-1,1a,6,6a-tetrahydrocyclopropa[b]pyrrolizine-3-carboxamide] are 5.2 h and 1.9 nM.
The corresponding values for `CNC(=O)C1(NC(=O)C(=O)c2c(C)c(C(=O)Nc3ccc(F)c(C#N)c3)n3c2CCC3C)CC(F)(F)C1` (stereo not shown) [Example 19, N-(3-cyano-4-fluorophenyl)-7-(2-((3,3-difluoro-1-(methylcarbamoyl)cyclobutyl)amino)-2-oxoacetyl)-3,6-dimethyl-2,3-dihydro-1H-pyrrolizine-5-carboxamide] are 18.3 h and 167 nM.
With `Cc1c(C(=O)C(=O)NC2(CNC3(C)CS(=O)(=O)C3)CC(F)(F)C2)c2n(c1C(=O)Nc1ccc(F)c(Cl)c1)CCC2` [Example 8, N-(3-chloro-4-fluorophenyl)-7-(2-((3,3-difluoro-1-(((3-methyl-1,1-dioxidothietan-3-yl)amino)methyl)cyclobutyl)amino)-2-oxoacetyl)-6-methyl-2,3-dihydro-1H-pyrrolizine-5-carboxamide], the half-life in series [2] is 0.4 h. The same molecule had an EC50 in series [3] of 72 nM.
